Results reported in PubChem BioAssay (NCI).
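Five compound concentrations were applied to cells in 96-well plates for 48 hours; endpoints were derived by simple linear interpolation of the resulting dose-response curve. GI50 marks 50% less growth. The concentration for full growth arrest is given as TGI.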

Experiments:
Assay in all cases: growth of human tumour cells (NCI), 48 h
[1] = system: 786-0 renal
[2] = system: A498 renal
[3] = system: A549 NSCLC
[4] = system: ACHN renal
[5] = system: BT-549 breast
[6] = system: CAKI-1 renal
[7] = system: CCRF-CEM leukemia
[8] = system: COLO 205 colon
[9] = system: DU-145 prostate
[10] = system: EKVX NSCLC
[11] = system: HCC-2998 colon
[12] = system: HCT-116 colon
[13] = system: HCT-15 colon
[14] = system: HL-60(TB) leukemia
[15] = system: HOP-62 NSCLC
[16] = system: HOP-92 NSCLC
[17] = system: HS 578T breast
[18] = system: HT29 colon
[19] = system: IGROV1 ovarian
[20] = system: K-562 leukemia
[21] = system: KM12 colon
[22] = system: LOX IMVI melanoma
[23] = system: M14 melanoma
[24] = system: MALME-3M melanoma
[25] = system: MCF7 breast
[26] = system: MDA-MB-231 breast
[27] = system: MDA-MB-435
[28] = system: MDA-MB-468 breast
[29] = system: MOLT-4 leukemia
[30] = system: NCI-H226 lung
[31] = system: NCI-H23 lung
[32] = system: NCI-H460 lung
[33] = system: NCI-H522 lung
[34] = system: NCI/ADR-RES ovarian
[35] = system: OVCAR-3 ovarian
[36] = system: OVCAR-4 ovarian
[37] = system: OVCAR-5 ovarian
[38] = system: OVCAR-8 ovarian
[39] = system: PC-3 prostate
[40] = system: RPMI-8226 leukemia
[41] = system: RXF 393 renal
[42] = system: SF-268 CNS
[43] = system: SF-295 CNS
[44] = system: SF-539 CNS
[45] = system: SK-MEL-2 melanoma
[46] = system: SK-MEL-28 melanoma
[47] = system: SK-MEL-5 melanoma
[48] = system: SK-OV-3 ovarian
[49] = system: SN12C renal
[50] = system: SNB-19 CNS
[51] = system: SNB-75 CNS
[52] = system: SR leukemia
[53] = system: SW-620 colon
[54] = system: T-47D breast
[55] = system: TK-10 renal
[56] = system: U251 CNS
[57] = system: UACC-257 melanoma
[58] = system: UACC-62 melanoma
[59] = system: UO-31 renal

Cc1ccc(-c2nc(Nc3ccccc3C(=O)O)c3ccccc3n2)cc1
GI50 [1]: 17.1 µM
TGI [1]: > 100 µM
GI50 [2]: 19.9 µM
TGI [2]: 58.1 µM
GI50 [3]: 8.31 µM
TGI [3]: > 100 µM
GI50 [4]: 6.44 µM
TGI [4]: 91.1 µM
GI50 [5]: 14.6 µM
TGI [5]: 33.8 µM
GI50 [6]: 13.8 µM
TGI [6]: > 100 µM
GI50 [7]: 5.72 µM
TGI [7]: > 100 µM
GI50 [8]: 17.8 µM
TGI [8]: 41 µM
GI50 [9]: 17.7 µM
TGI [9]: > 100 µM
GI50 [10]: 8.89 µM
TGI [10]: 56.2 µM
GI50 [11]: 12.4 µM
TGI [11]: 36 µM
GI50 [12]: 10.1 µM
TGI [12]: 36.1 µM
GI50 [13]: 5.83 µM
TGI [13]: 28.7 µM
GI50 [14]: 12.9 µM
TGI [14]: 75.4 µM
GI50 [15]: 10.8 µM
TGI [15]: 33.7 µM
GI50 [16]: 2.85 µM
TGI [16]: 29.3 µM
GI50 [17]: 10.2 µM
TGI [17]: 67 µM
GI50 [18]: 17.9 µM
TGI [18]: > 100 µM
GI50 [19]: 19.1 µM
TGI [19]: 87.1 µM
GI50 [20]: 7.05 µM
TGI [20]: > 100 µM
GI50 [21]: 13.7 µM
TGI [21]: 81.2 µM
GI50 [22]: 10.2 µM
TGI [22]: 31.6 µM
GI50 [23]: 15.5 µM
TGI [23]: 77.4 µM
GI50 [24]: 15.6 µM
TGI [24]: 64.5 µM
GI50 [25]: 9.41 µM
TGI [25]: 89.9 µM
GI50 [26]: 17.2 µM
TGI [26]: 59.7 µM
GI50 [27]: 13.9 µM
TGI [27]: 87.2 µM
GI50 [28]: 8.29 µM
TGI [28]: 42.3 µM
GI50 [29]: 11.7 µM
TGI [29]: > 100 µM
GI50 [30]: 10.2 µM
TGI [30]: 54.2 µM
GI50 [31]: 15.7 µM
TGI [31]: 44.4 µM
GI50 [32]: 8.52 µM
TGI [32]: 27.7 µM
GI50 [33]: 4.35 µM
TGI [33]: 27.1 µM
GI50 [34]: 16.8 µM
TGI [34]: 98.5 µM
GI50 [35]: 13.1 µM
TGI [35]: 51.3 µM
GI50 [36]: 8.77 µM
TGI [36]: > 100 µM
GI50 [37]: 21.8 µM
TGI [37]: 68.9 µM
GI50 [38]: 18.2 µM
TGI [38]: > 100 µM
GI50 [39]: 12.7 µM
TGI [39]: > 100 µM
GI50 [40]: 4.44 µM
TGI [40]: > 100 µM
GI50 [41]: 13.1 µM
TGI [41]: 65.9 µM
GI50 [42]: 14.3 µM
TGI [42]: > 100 µM
GI50 [43]: 7.04 µM
TGI [43]: 27 µM
GI50 [44]: 11.9 µM
TGI [44]: 28.3 µM
GI50 [45]: 3.65 µM
TGI [45]: 15.6 µM
GI50 [46]: 15.9 µM
TGI [46]: 97.4 µM
GI50 [47]: 5.32 µM
TGI [47]: 20.3 µM
GI50 [48]: 11.9 µM
TGI [48]: 55.3 µM
GI50 [49]: 11 µM
TGI [49]: 60.4 µM
GI50 [50]: 8.09 µM
TGI [50]: 81.7 µM
GI50 [51]: 1.36 µM
TGI [51]: 80.3 µM
GI50 [52]: 10.3 µM
TGI [52]: > 100 µM
GI50 [53]: 18.2 µM
TGI [53]: > 100 µM
GI50 [54]: 6.29 µM
TGI [54]: 70 µM
GI50 [55]: 29.2 µM
TGI [55]: > 100 µM
GI50 [56]: 5.58 µM
TGI [56]: 35 µM
GI50 [57]: 15.3 µM
TGI [57]: 90.3 µM
GI50 [58]: 10.2 µM
TGI [58]: 27 µM
GI50 [59]: 7.33 µM
TGI [59]: 77.9 µM
